Tests used:
[1] = Nucleoside triphosphate concentrations in dog PBMC after oral administration; type: in vivo; conditions: oral administration of 3 mg/Kg
Description: Male beagle dogs were administered a single intravenous (0.5 mg/kg) or oral dose (3-15 mg/kg) of a representative compound of the present invention. Blood samples (3.5 mL) were collected at 0, 0.0833 (IV only), 0.25, 0.5, 1, 2, 4, 6, 8, 24, 48, 72 hours post-dose through the jugular vein. K2EDTA was used as the anticoagulant. Plasma was prepared from an aliquot of 0.5 mL of blood and assayed for the compound and metabolites by tandem mass spectrometric method (LC/MS-MS). PBMC was isolated from 3 mL of blood and assayed for nucleoside triphosphate (NTP) levels by LC/MS-MS.
Three mL of blood was collected from the dog into EDTA vacutainers and mixed on a rocker & immediately placed on ice. The blood was transferred to a 15 mL falcon tube. Three mL PBS (w/o Ca/Mg) and 3 mL 6% dextran (in PBS) were added and was left for 30 minutes on ice to allow the red blood cells to sediment. Blood supernatant (5-7 mL) was layered on top of 5 mL of Mammalian-Lympholyte in 15-mL conical blue-top tube, centrifuged for 20 minutes at 1500 g at 4° C.
After centrifugation, the well-defined lymphocyte (PBMC) layer at the interface was carefully removed to a new 15-mL centrifuge tube and was diluted to a total volume of 15 mL to reduce the density of the solution. The content was centrifuged at 800 g for 10 minutes at 4° C. to pellet the PBMC. The pellet was re-suspended in 1 mL of PBS and further diluted to 10 mL, followed by centrifugation at 800 g for 10 minutes at 4° C. to pellet the PBMC. The pellet was re-suspended in 1 mL PBS and followed by 5 mL ice cold de-ionized water, mixed for 30 seconds by inverting to lyse the remaining red blood cells. Five ml of ice cold 2×PBS was added to bring the mixture back to isotonicity. The mixture was centrifuged at 800 g for 10 minutes at 4° C. to pellet the cells and discard the supernatant. The resulting pellet was re-suspended in 1 mL PBS. An aliquot of 10 μL of the pellet suspension was diluted into 90 μL of PBS for cell count. An aliquot of each sample was transferred to a fresh Eppendorf tubes and centrifuged at 5000 rpm for 5 min at 4° C. The pellets were ready for bioanalysis.
Concentrations of nucleoside triphosphate in PBMC were determined by tandem mass spectrometric method (LC/MS/MS). Chromatography was conducted on ACQUITY UPLC HSS T3 Column, 100 Å, 1.8 μm, 2.1 mm×50 mm using a mobile phase gradient consisting of (A) 2 mM ammonium dihydrogen-phosphate and 5 mM Hexylamine in (B) Acetonitrile, 8% B to 22% B in 3.2 minutes at a flow rate of 0.3 mL/minute. The mass spectrometer was operated in the Multiple Reaction Monitoring (MRM) using negative ionization mode. An internal standard, Carbosynth was used in the construction of standard calibration curves in blank PBMC obtained commercially. The nucleoside triphosphate was monitored at m/z 538.1>158.9 and the internal standard was monitored at 536.1>158.9. The dynamic range was 50, 100, 300, 1000, 3000, 10000, 30000 fmole/3×10^6 PBMC.

[2] = Stability in liver microsomes; type: in vitro ADME; conditions: human, read-out: liver microsomes t1/2
dengue virus = assay: Dengue EC50 determination: PBMC infected with virus/humanized 4G2 antibody complex, plaque reduction assay using BHK cells; type: cell-based; conditions: M.O.I of 1, 48 hours, plaque reduction in BHK cells
Description: Cryopreserved PBMC (Peripheral Blood Mononuclear Cell) cells were purchased from AllCells, LLC in USA. The cells were then thawed according to manufacturer's instructions and re-suspended in RPMI medium supplemented with 1% penicillin/streptomycin solution and 10% Fetal Calf serum. The cells were then counted and viability checked (viability should be at least 80%). After centrifuging and removing the media, the cells were diluted to 1×10^7 cells/mL in RPMI medium supplemented with 1% penicillin/streptomycin. 50 μl of the cells were then dispensed into 96-well tissue culture plate resulting in 5×10^5 cells/well. Next, virus with humanized 4G2 mixture was prepared for infection. Briefly, virus (2×10^7 pfu/ml) was mixed with humanized 4G2 antibody with the final antibody concentration of 0.38 μg/ml and incubated for 30 minutes at 4° C. to assist virus/antibody complex formation. The virus-antibody complex was then added to the PBMC at multiplicity of infection (M.O.I) of 1. The mixture of cells, virus and antibody was then further incubated in the plates at 37° C. for an hour in the humidified incubator for virus attachment and infection to take place. Serial diluted compounds were then added to the final media volume of 200 μl with 2% Fetal Calf Serum (final PBMC concentration would be 2.5×10^6 cells/mL). The plates were then incubated at 37° C., 5% CO2 for another 48 hours. The extent of the infection and compound inhibition was measured by plaque reduction assay using BHK cells [RD-2004-80036]. Briefly, supernatants of BHK cells grown in 24-well tissue culture (seeded at 200,000 cells/well the night before) were removed and subjected to 200 μl of diluted supernatants derived from PBMC infection containing serial diluted compounds. After incubating it for 37° C. for 1 hour in the incubator, the supernatants were removed and BHK cells overlaid with RPMI media containing 0.8% methyl-cellulose, 0.5% DMSO, 0.05% sodium bicarbonate, 25 mM HEPES, 2% fetal bovine serum and 1% penicillin/streptomycin solution. After additional 4 days of incubation at 37° C. incubator, the monolayer of BHK cells were fixed with 4% paraformaldehyde, stained with crystal violet and plaques counted. The dose response (n=2) is calculated by Prism from Graphpad software using a mathematical curve fitting analysis called nonlinear regression with four independent parameters. Briefly, the software generates the best fit curve using the formula F(x)=((A−D)/(1+((x/C)̂B)))+D. In this formula, x represents the concentration of the compound, A is the minimum value, B represents the steepness of the curve (sometimes known as Hill slope), C is the inflection point and D is the maximum value. EC50 was estimated as the concentration of the compound which will inhibit 50% of the plaque formation. A positive control (7-deaza-2′-C-acetylene-adenosine) was used to ensure the quality of the data.

SMILES | NTP AUC0-24h [1] [fmol/3 million cells] | NTP Cmax [1] [fmol/3 million cells] | half-life [2] [min] | EC50 (dengue virus) [nM]
CCOC(=O)[C@H](C)N[P@@]1(=O)OC[C@H]2O[C@@H](n3cnc4c(OCC)nc(N)nc43)[C@](C)(F)[C@@H]2O1 [Example 1, (S)-ethyl 2-(((2R,4aR,6R,7R,7aR)-6-(2-amino-6-ethoxy-9H-purin-9-yl)-7-fluoro-7-methyl-2-oxidotetrahydro-4H-furo[3,2-d][1,3,2]dioxaphosphinin-2-yl)amino)propanoate] | 36900 ± 11358 | 2331 ± 1181 | 47 | 230
CCOc1nc(N)nc2c1ncn2[C@@H]1O[C@@H]2CO[P@@](=O)(N[C@@H](C)C(=O)OC(C)C)O[C@H]2[C@@]1(C)F [Example 2, (S)-isopropyl 2-(((2S,4aR,6R,7R,7aR)-6-(2-amino-6-ethoxy-9H-purin-9-yl)-7-fluoro-7-methyl-2-oxidotetrahydro-4H-furo[3,2-d][1,3,2]dioxaphosphinin-2-yl)amino)propanoate] | 7218 ± 5117 | 618 ± 308 | 32 | 72
CCOc1nc(N)nc2c1ncn2[C@@H]1O[C@@H]2CO[P@](=O)(N[C@@H](C)C(=O)OC)O[C@H]2[C@@]1(C)F [Example 3, (S)-methyl 2-(((2R,4aR,6R,7R,7aR)-6-(2-amino-6-ethoxy-9H-purin-9-yl)-7-fluoro-7-methyl-2-oxidotetrahydro-4H-furo[3,2-d][1,3,2]dioxaphosphinin-2-yl)amino)propanoate] | 10457 ± 2983 | 662 ± 228 | 57 | 460
CCOc1nc(N)nc2c1ncn2[C@@H]1O[C@@H]2CO[P@@](=O)(N[C@H](C)C(=O)OC(C)C)O[C@H]2[C@@]1(C)F [Example 6, (R)-isopropyl 2-(((2S,4aR,6R,7R,7aR)-6-(2-amino-6-ethoxy-9H-purin-9-yl)-7-fluoro-7-methyl-2-oxidotetrahydro-4H-furo[3,2-d][1,3,2]dioxaphosphinin-2-yl)amino)propanoate] | 11049 ± 2190 | 777 ± 45.2 |  | 370
